According to ChEMBL document CHEMBL5154694, “Fascaplysin derivatives binding to DNA via unique cationic five-ring coplanar backbone showed potent antimicrobial/antibiofilm activity against MRSA in vitro and in vivo” (Eur J Med Chem, 2022):
Activity calls are given as the source filed them. The rule behind the calls is not given here.

Legend:
[1] = system: Staphylococcus aureus; experiment: Bactericidal activity against methicillin-resistant Staphylococcus aureus ATCC 4330 assessed as reduction in bacterial counts at 1 to 4X MIC within 24 hrs by time-kill kinetic assay; assay type: functional
[2] = system: Staphylococcus aureus; experiment: Antibacterial activity against methicillin-resistant Staphylococcus aureus ATCC 4330 after 16 to 18 hrs by microbroth dilution method; assay type: functional; details: time 16-18 hrs
[3] = system: Staphylococcus aureus; experiment: Bactericidal activity against methicillin-resistant Staphylococcus aureus ATCC 4330 assessed as reduction in bacterial counts at 2X MIC within 0.5 hrs by time-kill kinetic assay; assay type: functional
[4] = system: Staphylococcus aureus; experiment: Bactericidal activity against methicillin-resistant Staphylococcus aureus ATCC 4330 assessed as inhibition of bacterial regrowth at 2X MIC after 24 hrs by time-kill kinetic assay; assay type: functional, organism-based
[5] = system: Staphylococcus aureus; experiment: Bactericidal activity against methicillin-resistant Staphylococcus aureus ATCC 4330 assessed as reduction in bacterial counts at 4X MIC by time-kill kinetic assay; assay type: functional, organism-based
[6] = system: Staphylococcus aureus; experiment: Induction of membrane morphological changes in methicillin-resistant Staphylococcus aureus ATCC 4330 assessed as visible cell surface wrinkles at 4X MIC after 2 hrs by scanning electron microscopy; assay type: functional
[7] = system: DNA; experiment: Inhibition of methicillin-resistant Staphylococcus aureus ATCC 4330 genomic DNA migration at 3.125 to 6.25 ug/ml measured by electrophoretic mobility assay; assay type: nucleic-acid assay; details: dose 3.125-6.25 µg/ml
[8] = system: Staphylococcus aureus; experiment: Induction of membrane morphological changes in methicillin-resistant Staphylococcus aureus ATCC 4330 assessed as visible cell wall fragments at 4X MIC after 2 hrs by transmission electron microscopy; assay type: functional
[9] = system: Staphylococcus aureus; experiment: Induction of membrane morphological changes in methicillin-resistant Staphylococcus aureus ATCC 4330 assessed as ghost cells at 4X MIC after 2 hrs by transmission electron microscopy; assay type: functional
[10] = system: Staphylococcus aureus; experiment: Induction of membrane morphological changes in methicillin-resistant Staphylococcus aureus ATCC 4330 assessed as permeable cells at 1 to 4X MIC measured after 30 to 120 mins by propidium iodide staining based flow cytometry assay; assay type: functional; details: time 30-120 min
[11] = system: DNA; experiment: Binding affinity to methicillin-resistant Staphylococcus aureus ATCC 4330 DNA assessed as induction of confirmational changes at 50 ug/ml measured by Circular dichroism assay; assay type: nucleic-acid assay; details: dose 50.0 µg/ml
[12] = system: Staphylococcus aureus; experiment: Induction of membrane morphological changes in methicillin-resistant Staphylococcus aureus ATCC 4330 assessed as visible cell filaments at 4X MIC after 2 hrs by scanning electron microscopy; assay type: functional
[13] = system: Staphylococcus aureus; experiment: Induction of membrane morphological changes in methicillin-resistant Staphylococcus aureus ATCC 4330 assessed as visible cell membrane disruption at 4X MIC after 2 hrs by transmission electron microscopy; assay type: functional
[14] = Cytotoxicity against mouse RAW264.7 cells assessed as cell survival at 50 ug/ml incubated for 24 hrs by CCK-8 assay; assay type: toxicity, cell-based; details: at 50 µg/mL, read-out: Activity
[15] = Hemolytic activity in mouse erythrocytes assessed as hemolysis at 12.5 ug/ml relative to control; assay type: toxicity, cell-based, Erythrocyte; details: at 12.5 µg/mL, read-out: Activity
[16] = system: Staphylococcus aureus; experiment: Antimicrobial activity against methicillin-resistant Staphylococcus aureus ATCC 4330 infected in female ICR peritonitis mouse model assessed as survival time of mouse at 10 mg/kg, ip; assay type: functional
[17] = Toxicity in female ICR peritonitis mouse model infected with methicillin-resistant Staphylococcus aureus ATCC 4330 assessed as kidney damage at 10 mg/kg, ip; assay type: organism-based; details: in vivo
[18] = system: Staphylococcus aureus; experiment: Induction of membrane morphological changes in methicillin-resistant Staphylococcus aureus ATCC 4330 assessed as fluorescent intensity at 1 to 4X MIC measured after 30 to 120 mins by propidium iodide staining based flow cytometry assay; assay type: functional; details: time 30-120 min
[19] = Cytotoxicity against mouse RAW264.7 cells assessed as cell survival at 25 ug/ml incubated for 24 hrs by CCK-8 assay; assay type: toxicity, cell-based; details: at 25 µg/mL, read-out: Activity
[20] = Cytotoxicity against mouse RAW264.7 cells assessed as cell survival at 12.5 ug/ml incubated for 24 hrs by CCK-8 assay; assay type: toxicity, cell-based; details: at 12.5 µg/mL, read-out: Activity
[21] = Toxicity in female ICR peritonitis mouse model infected with methicillin-resistant Staphylococcus aureus ATCC 4330 assessed as lung damage at 10 mg/kg, ip; assay type: organism-based; details: in vivo
[22] = system: Staphylococcus aureus; experiment: Antimicrobial activity against methicillin-resistant Staphylococcus aureus ATCC 4330 infected in female ICR peritonitis mouse model assessed as increase in survival rate of mouse at 10 mg/kg, ip; assay type: functional
[23] = system: Staphylococcus aureus; experiment: Antibiofilm activity against methicillin-resistant Staphylococcus aureus ATCC 4330 assessed as fold change in upregulation of AgrA mRNA expression at 4X MIC after 2 hrs by qRT-PCR assay; assay type: functional
[24] = system: Staphylococcus aureus; experiment: Antibiofilm activity against methicillin-resistant Staphylococcus aureus ATCC 4330 assessed as inhibition of biofilm formation at 1.56 ug/ml after 24 hrs by crystal violet staining based assay relative to control; assay type: functional
[25] = Toxicity in female ICR peritonitis mouse model infected with methicillin-resistant Staphylococcus aureus ATCC 4330 assessed as liver damage at 10 mg/kg, ip; assay type: organism-based; details: in vivo
[26] = system: Staphylococcus aureus; experiment: Antimicrobial activity against methicillin-resistant Staphylococcus aureus ATCC 4330 infected in female ICR peritonitis mouse model assessed as reduction in bacteria in blood at 10 mg/kg, ip; assay type: functional
[27] = system: Staphylococcus aureus; experiment: Antibiofilm activity against methicillin-resistant Staphylococcus aureus ATCC 4330 assessed as inhibition of biofilm formation at 50 ug/ml after 24 hrs by crystal violet staining based assay relative to control; assay type: functional
[28] = system: Staphylococcus aureus; experiment: Antibiofilm activity against methicillin-resistant Staphylococcus aureus ATCC 4330 assessed as fold change in downregulation of AgrA mRNA expression at 4X MIC after 2 hrs by qRT-PCR assay; assay type: functional

Cc1ccc2[nH]c3c4[n+](ccc3c2c1)-c1ccccc1C4=O.[Cl-]
Activity [1]: 2 log10CFU/ml | MIC [2]: 0.78 µg/mL | Activity [3]: 0.1 log10CFU/ml

CCCCNC(=O)c1ccc2[nH]c3c4[n+](ccc3c2c1)-c1ccccc1C4=O.[Br-]
Activity [4]: Active | Activity [5]: Active | Activity [1]: 2 log10CFU/ml | MIC [2]: 6.25 µg/mL | Activity [3]: 0.5 log10CFU/ml

O=C(c1ccccc1Cl)c1nccc2c1[nH]c1ccccc12
MIC [2]: > 200 µg/mL

Cc1ccc2[nH]c3c4[n+](ccc3c2c1)-c1ccccc1C4=O
Activity [6]: Active | inhibition of DNA migration [7]: Active | Activity [8]: Active | Activity [9]: Active | Activity [10]: 1.11% | Activity [4]: Active | Activity [5]: Active | Activity [11]: Active | Activity [12]: Active | Activity [13]: Active

CCCCNC(=O)c1ccc2[nH]c3c(C(=O)c4ccccc4Br)nccc3c2c1
MIC [2]: > 200 µg/mL

O=C1c2ccccc2-[n+]2ccc3c([nH]c4ccc(Br)cc43)c21.[Br-]
viability at 24 h, 50 ug/ml [14]: 92.9% | Activity [6]: Active | inhibition of DNA migration [7]: Active | Activity [8]: Active | hemolysis at 12.5 ug/ml [15]: 0% | Activity [9]: Active | Survival [16]: 2 days | Activity [4]: Active | Activity [17]: Non-Toxic | Activity [5]: Active | Activity [18]: 19.3% | viability at 24 h, 25 ug/ml [19]: 86.5% | viability at 24 h, 12.5 ug/ml [20]: 72.3% | Activity [11]: Active | Activity [21]: Non-Toxic | Activity [22]: 20% | Activity [1]: 2 log10CFU/ml | Activity [12]: Active | Activity [13]: Active | fold change (FC) [23]: 2.12 | MIC [2]: 0.098 µg/mL | Activity [3]: 2.4 log10CFU/ml | inhibition at 1.56 µg/mL [24]: 74.9% | Activity [25]: Non-Toxic | Activity [26]: Active

CN[C@H](CC(C)C)C(=O)N[C@H]1C(=O)N[C@@H](CC(N)=O)C(=O)N[C@H]2C(=O)N[C@H]3C(=O)N[C@H](C(=O)N[C@H](C(=O)O)c4cc(O)cc(O)c4-c4cc3ccc4O)[C@H](O)c3ccc(c(Cl)c3)Oc3cc2cc(c3O[C@@H]2O[C@H](CO)[C@@H](O)[C@H](O)[C@H]2O[C@H]2C[C@](C)(N)[C@H](O)[C@H](C)O2)Oc2ccc(cc2Cl)[C@H]1O [VANCOMYCIN]
Activity [5]: Active | Activity [1]: 2 log10CFU/ml | Activity [3]: 0.1 log10CFU/ml

O=C1c2ccccc2-[n+]2ccc3c([nH]c4ccccc43)c21.[Br-]
viability at 24 h, 50 ug/ml [14]: 100% | hemolysis at 12.5 ug/ml [15]: 0% | Survival [16]: 2 days | Activity [17]: Non-Toxic | viability at 24 h, 25 ug/ml [19]: 100% | viability at 24 h, 12.5 ug/ml [20]: 91.7% | Activity [21]: Non-Toxic | inhibition at 50 µg/mL [27]: 27.4% | Activity [22]: 20% | Activity [1]: 2 log10CFU/ml | fold change (FC) [23]: 1.67 | MIC [2]: 0.39 µg/mL | Activity [3]: 0 log10CFU/ml | Activity [25]: Non-Toxic

O=C(Nc1cccc2ccccc12)c1ccc2[nH]c3c4[n+](ccc3c2c1)-c1ccccc1C4=O.[Br-]
viability at 24 h, 50 ug/ml [14]: 98.4% | Activity [6]: Active | inhibition of DNA migration [7]: Active | Activity [8]: Active | hemolysis at 12.5 ug/ml [15]: 0% | Activity [9]: Active | Survival [16]: 2 days | fold change (FC) [28]: 0.1 | Activity [4]: Active | Activity [17]: Non-Toxic | Activity [5]: Active | Activity [18]: 19.3% | Activity [11]: Active | Activity [21]: Non-Toxic | Activity [22]: 20% | Activity [1]: 2 log10CFU/ml | Activity [12]: Active | Activity [13]: Active | MIC [2]: 0.098 µg/mL | Activity [3]: 1.9 log10CFU/ml | inhibition at 1.56 µg/mL [24]: 78.9% | Activity [25]: Non-Toxic | Activity [26]: Active

Cc1ccc2[nH]c3c(C(=O)c4ccccc4Cl)nccc3c2c1
MIC [2]: > 200 µg/mL

O=C(O)c1ccc2[nH]c3c(C(=O)c4ccccc4Br)nccc3c2c1
MIC [2]: > 200 µg/mL

NC(=O)c1ccc2[nH]c3c4[n+](ccc3c2c1)-c1ccccc1C4=O.[Br-]
MIC [2]: 200 µg/mL

NC(=O)c1ccc2[nH]c3c(C(=O)c4ccccc4Br)nccc3c2c1
MIC [2]: > 200 µg/mL

Cc1ccc2[nH]c3c(C(=O)c4ccccc4Br)nccc3c2c1
MIC [2]: > 200 µg/mL

O=C(Nc1cccc2ccccc12)c1ccc2[nH]c3c(C(=O)c4ccccc4Br)nccc3c2c1
MIC [2]: > 200 µg/mL

O=C(c1ccccc1Br)c1nccc2c1[nH]c1ccccc12
MIC [2]: > 200 µg/mL

O=C(O)c1ccc2[nH]c3c4[n+](ccc3c2c1)-c1ccccc1C4=O.[Br-]
Activity [5]: Active | Activity [1]: 2 log10CFU/ml | MIC [2]: 6.25 µg/mL | Activity [3]: 0 log10CFU/ml

O=C(c1ccccc1Br)c1nccc2c1[nH]c1ccc(Br)cc12
MIC [2]: > 200 µg/mL

O=C1c2ccccc2-[n+]2ccc3c([nH]c4ccccc43)c21
Activity [6]: Active | inhibition of DNA migration [7]: Active | Activity [8]: Active | Activity [9]: Active | Activity [10]: 1.11% | Activity [4]: Active | Activity [5]: Active | Activity [11]: Active | Activity [12]: Active | Activity [13]: Active | Activity [26]: Active
